Laboratory results as given in paper PMC4846832, “Discovery of new MD2 inhibitor from chalcone derivatives with anti-inflammatory effects in LPS-induced acute lung injury” (Scientific Reports, 2016).

Biological target: T1, MD2 (myeloid differentiation protein 2) (Homo sapiens, UniProt Q9Y6Y9)
T1 construct: gene LY96; recombinant human MD2 (rhMD2)
T1 sequence (Q9Y6Y9 19-160): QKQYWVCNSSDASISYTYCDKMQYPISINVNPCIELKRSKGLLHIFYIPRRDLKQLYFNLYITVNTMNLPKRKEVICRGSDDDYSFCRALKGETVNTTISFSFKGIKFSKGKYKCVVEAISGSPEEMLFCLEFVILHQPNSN
Assay: SPR (ProteOn XPR36); supported by bis-ANS displacement and biotin-LPS competitive ELISA
Format: binding

- Kd: 189 µM
SMILES: COc1ccc(C(=O)/C=C/c2cc(OC)c(OC)c(OC)c2)cc1OC [compound 20]
